Test results taken from paper PMC9168620, “Genetic validation of Aspergillus fumigatus phosphoglucomutase as a viable therapeutic target in invasive aspergillosis” (The Journal of Biological Chemistry, 2022).
Several values for one entry are separate records, joined by “and”; a condition that tells them apart may be missing. Equal values may be shown once.

These compounds were tested against T1, AfPGM (Aspergillus fumigatus, UniProt Q4WY53) (assay: biochemical). Conditions: 15-min preincubation (Fig. S11C, D).
T1 construct: Full length AfPGM; 6His-GST (N, cleaved yes); made in house; host or cells: E. coli BL21 (DE3) pLysS
Protocol: (§1) The reaction mixture contained MOPS–NaOH (pH 7.4; 50 mM), MgSO4 (1.5 mM), NADP^+ (1 mM), G6PDH (0.01 U) from L. mesenteroides, Glc-1P (500 μM), Glc-1,6-2P (50 μM), and enzyme (5 nM). The reaction was carried out at 25 °C for 6 min in a total volume of 100 μl. Formation of NADPH was detected in real-time (every 1.5 min), measuring fluorescence signal (excitation at 360 nm; emission at 460 nm). To measure the inhibitory activity, compounds with different concentrations (3% (v/v) DMSO) were added to the reaction system. IC50 values were calculated using the product (NADPH) concentration at 6 min with 500 μM Glc-1P.
(§2) Figure S11: Representative enzyme activity assays for PGMs. Error bars represent standard deviation of three determinations. Panel A and B show the time course of PGMs and PGM mutants in which sugar recognition glutamates are mutated to glutamine. […] Values in parentheses indicate the time at which DTT (1 mM) was added.

T1 sequence (Q4WY53 whole entry): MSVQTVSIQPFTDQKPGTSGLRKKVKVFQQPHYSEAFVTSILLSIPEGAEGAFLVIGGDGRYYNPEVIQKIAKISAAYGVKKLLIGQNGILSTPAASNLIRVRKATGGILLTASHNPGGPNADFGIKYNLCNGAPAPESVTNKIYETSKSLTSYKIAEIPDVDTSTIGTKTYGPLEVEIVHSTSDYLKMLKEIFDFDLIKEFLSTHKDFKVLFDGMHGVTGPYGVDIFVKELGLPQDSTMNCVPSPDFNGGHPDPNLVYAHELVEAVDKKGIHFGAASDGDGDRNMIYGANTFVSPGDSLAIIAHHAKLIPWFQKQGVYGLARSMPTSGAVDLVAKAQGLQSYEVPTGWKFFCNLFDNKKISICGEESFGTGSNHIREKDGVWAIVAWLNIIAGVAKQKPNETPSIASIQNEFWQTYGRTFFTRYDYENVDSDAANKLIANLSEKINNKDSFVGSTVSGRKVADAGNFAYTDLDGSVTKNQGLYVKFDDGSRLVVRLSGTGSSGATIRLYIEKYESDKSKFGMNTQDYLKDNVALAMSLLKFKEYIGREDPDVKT

Structure (SMILES) | Shift in IC50 against AfPGM over preincubation
O=C(OCc1ccccc1)c1ccc(-n2sccc2=O)cc1 [ISFP10, benzyl 4-(3-oxoisothiazol-2(3H)-yl)benzoate] | no shift

Same assay, conditions: WT AfPGM 5 nM, no preincubation, 500 μM Glc-1P

IC50 AfPGM | Structure (SMILES) | IC50
– | O=c1ccsn1-c1cc(Cl)cc(Cl)c1F [ISFP5, 2-(3,5-dichloro-2-fluorophenyl)isothiazol-3(2H)-one] | 1 µM and 0.8 µM
– | CC(C)(C)OC(=O)c1ccc(-n2sccc2=O)cc1 [ISFP8, tert-butyl 4-(3-oxoisothiazol-2(3H)-yl)benzoate] | 3.1 µM
– | O=C(OCc1ccccc1)c1ccc(-n2sccc2=O)cc1 [ISFP10, benzyl 4-(3-oxoisothiazol-2(3H)-yl)benzoate] | 2 µM
– | CC(C)OC(=O)c1ccc(-n2sccc2=O)cc1 [ISFP11, isopropyl 4-(3-oxoisothiazol-2(3H)-yl)benzoate] | 3.1 µM
– | O=c1ccsn1-c1cccc([N+](=O)[O-])c1 [ISFP12, 2-(3-nitrophenyl)isothiazol-3(2H)-one] | 5.7 µM
– | O=c1ccsn1-c1cccc(Cl)c1 [ISFP13, 2-(3-chlorophenyl)isothiazol-3(2H)-one] | 5.8 µM
– | N#Cc1cccc(-n2sccc2=O)c1 [ISFP14, 3-(3-oxoisothiazol-2(3H)-yl)benzonitrile] | 5.7 µM
– | CCOC(=O)c1cc2cc(-n3sccc3=O)ccc2o1 [ISFP15, ethyl 5-(3-oxoisothiazol-2(3H)-yl)benzofuran-2-carboxylate] | 2.3 µM
– | O=c1ccsn1-c1ccccc1F [ISFP16, 2-(2-fluorophenyl)isothiazol-3(2H)-one] | 21 µM
– | O=c1ccsn1-c1cccc2ccccc12 [ISFP17, 2-(naphthalen-1-yl)isothiazol-3(2H)-one] | 3.3 µM
– | O=C(c1ccc(-n2sccc2=O)cc1)N1CCOCC1 [ISFP18, 2-(4-(morpholine-4-carbonyl)phenyl)isothiazol-3(2H)-one] | 19 µM
– | CC(=O)OCc1cccc(-n2sccc2=O)c1 [ISFP19, 3-(3-oxoisothiazol-2(3H)-yl)benzyl acetate] | 36 µM
– | O=c1ccsn1-c1c(F)cccc1F [ISFP20, 2-(2,6-difluorophenyl)isothiazol-3(2H)-one] | 19 µM
– | O=c1ccsn1-c1cccc(CO)c1 [ISFP21, 2-(3-(hydroxymethyl)phenyl)isothiazol-3(2H)-one] | 23 µM
no inhibition | O=c1ccsn1CCc1ccccc1 [ISFP22, 2-phenethylisothiazol-3(2H)-one] | –
no inhibition | CCOC(=O)Cn1sccc1=O [ISFP23, ethyl 2-(3-oxoisothiazol-2(3H)-yl)acetate] | –
no inhibition | CCOC(=O)CCn1sccc1=O [ISFP24, ethyl 3-(3-oxoisothiazol-2(3H)-yl)propanoate] | –
no inhibition | CCOCCn1sccc1=O [ISFP25, 2-(2-ethoxyethyl)isothiazol-3(2H)-one] | –
no inhibition | O=c1ccsn1Cc1ccccc1 [ISFP26, 2-benzylisothiazol-3(2H)-one] | –
– | Cc1cc(=O)n(-c2cccc(Cl)c2)s1 [ISFP30, 2-(3-chlorophenyl)-5-methylisothiazol-3(2H)-one] | 5.2 µM

Structure (SMILES) | IC50 AfPGM | IC50
O=c1cc(-c2ccccc2)sn1-c1cccc(Cl)c1 [ISFP27, 2-(3-chlorophenyl)-5-phenylisothiazol-3(2H)-one] | no inhibition | –
Cc1csn(-c2cccc(Cl)c2)c1=O [ISFP28, 2-(3-chlorophenyl)-4-methylisothiazol-3(2H)-one] | no inhibition | –

Each compound was assayed against T2, AfPGMC353∗ (Aspergillus fumigatus, UniProt Q4WY53, C131S/C242S/C364S) (assay: G6PDH coupled assay for PGM, AfPGMC353∗ variant (C353 the sole cysteine)). Conditions: AfPGMC353∗ (all other cysteines mutated to serine) 5 nM, no preincubation.
T2 construct: Full length AfPGM; 6His-GST (N, cleaved yes); made in house; host or cells: E. coli BL21 (DE3) pLysS
Format: biochemical
Protocol: as §1

T2 sequence (Q4WY53 whole entry C131S/C242S/C364S): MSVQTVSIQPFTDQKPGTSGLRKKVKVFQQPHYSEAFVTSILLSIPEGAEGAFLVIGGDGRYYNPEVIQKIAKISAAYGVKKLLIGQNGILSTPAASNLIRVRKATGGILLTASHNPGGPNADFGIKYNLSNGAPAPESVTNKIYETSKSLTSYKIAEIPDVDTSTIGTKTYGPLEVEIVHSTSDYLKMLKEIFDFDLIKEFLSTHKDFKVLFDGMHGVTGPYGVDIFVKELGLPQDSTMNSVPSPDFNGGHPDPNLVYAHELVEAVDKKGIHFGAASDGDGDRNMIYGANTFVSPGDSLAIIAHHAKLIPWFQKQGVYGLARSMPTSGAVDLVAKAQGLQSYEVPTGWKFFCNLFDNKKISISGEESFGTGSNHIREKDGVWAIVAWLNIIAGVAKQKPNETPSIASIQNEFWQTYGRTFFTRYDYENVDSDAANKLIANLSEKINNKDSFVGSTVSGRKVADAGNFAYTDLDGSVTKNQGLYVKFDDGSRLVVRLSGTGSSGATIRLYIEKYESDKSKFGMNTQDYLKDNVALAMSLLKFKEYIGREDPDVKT

Structure (SMILES) | IC50 AfPGMC353
Cc1cc(=O)n(-c2cccc(Cl)c2)s1 [ISFP30, 2-(3-chlorophenyl)-5-methylisothiazol-3(2H)-one] | no inhibition

Same assay, conditions: IC50 AfPGMC353, AfPGMC353∗ (all other cysteines mutated to serine) 5 nM, no preincubation

Structure (SMILES) | IC50
O=c1ccsn1-c1cc(Cl)cc(Cl)c1F [ISFP5, 2-(3,5-dichloro-2-fluorophenyl)isothiazol-3(2H)-one] | 8 µM and 7.8 µM
CC(C)(C)OC(=O)c1ccc(-n2sccc2=O)cc1 [ISFP8, tert-butyl 4-(3-oxoisothiazol-2(3H)-yl)benzoate] | 6.7 µM
O=C(OCc1ccccc1)c1ccc(-n2sccc2=O)cc1 [ISFP10, benzyl 4-(3-oxoisothiazol-2(3H)-yl)benzoate] | 4 µM and 3.6 µM
CC(C)OC(=O)c1ccc(-n2sccc2=O)cc1 [ISFP11, isopropyl 4-(3-oxoisothiazol-2(3H)-yl)benzoate] | 6 µM
O=c1ccsn1-c1cccc([N+](=O)[O-])c1 [ISFP12, 2-(3-nitrophenyl)isothiazol-3(2H)-one] | 9.5 µM
O=c1ccsn1-c1cccc(Cl)c1 [ISFP13, 2-(3-chlorophenyl)isothiazol-3(2H)-one] | 12.2 µM
N#Cc1cccc(-n2sccc2=O)c1 [ISFP14, 3-(3-oxoisothiazol-2(3H)-yl)benzonitrile] | 9.5 µM
CCOC(=O)c1cc2cc(-n3sccc3=O)ccc2o1 [ISFP15, ethyl 5-(3-oxoisothiazol-2(3H)-yl)benzofuran-2-carboxylate] | 15 µM
O=c1ccsn1-c1ccccc1F [ISFP16, 2-(2-fluorophenyl)isothiazol-3(2H)-one] | 23 µM
O=c1ccsn1-c1cccc2ccccc12 [ISFP17, 2-(naphthalen-1-yl)isothiazol-3(2H)-one] | 16 µM
O=C(c1ccc(-n2sccc2=O)cc1)N1CCOCC1 [ISFP18, 2-(4-(morpholine-4-carbonyl)phenyl)isothiazol-3(2H)-one] | 23 µM
CC(=O)OCc1cccc(-n2sccc2=O)c1 [ISFP19, 3-(3-oxoisothiazol-2(3H)-yl)benzyl acetate] | 115 µM
O=c1ccsn1-c1c(F)cccc1F [ISFP20, 2-(2,6-difluorophenyl)isothiazol-3(2H)-one] | 14 µM
O=c1ccsn1-c1cccc(CO)c1 [ISFP21, 2-(3-(hydroxymethyl)phenyl)isothiazol-3(2H)-one] | 25 µM

What follows are compounds tested against T3, HsPGM (Homo sapiens, UniProt P36871) (assay: G6PDH coupled assay for PGM, HsPGM). Conditions: HsPGM 5 nM, no preincubation; > values: highest concentration at which the compound can solubilize.
T3 construct: Full length HsPGM; 6His-GST (N, cleaved yes); made in house; host or cells: E. coli BL21 (DE3) pLysS (same protocol as AfPGM)
T3 sequence (P36871 1-562): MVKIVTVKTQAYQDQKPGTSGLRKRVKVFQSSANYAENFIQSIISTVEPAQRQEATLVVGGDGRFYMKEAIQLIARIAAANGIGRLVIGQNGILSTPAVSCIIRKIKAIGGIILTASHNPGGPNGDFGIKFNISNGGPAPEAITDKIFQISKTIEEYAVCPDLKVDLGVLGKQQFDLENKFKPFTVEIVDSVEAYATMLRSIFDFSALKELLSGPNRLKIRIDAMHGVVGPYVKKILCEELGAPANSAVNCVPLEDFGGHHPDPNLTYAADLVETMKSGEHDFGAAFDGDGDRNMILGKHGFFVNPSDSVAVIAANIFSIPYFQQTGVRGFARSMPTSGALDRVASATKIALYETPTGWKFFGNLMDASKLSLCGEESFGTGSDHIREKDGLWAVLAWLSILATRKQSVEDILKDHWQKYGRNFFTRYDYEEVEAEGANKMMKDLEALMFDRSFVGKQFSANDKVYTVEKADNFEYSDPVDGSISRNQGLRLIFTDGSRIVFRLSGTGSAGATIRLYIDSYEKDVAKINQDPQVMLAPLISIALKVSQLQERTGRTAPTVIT
Format: biochemical
Protocol: as §1, §2

Structure (SMILES) | IC50 HsPGM
Cc1cc(=O)n(-c2cccc(Cl)c2)s1 [ISFP30, 2-(3-chlorophenyl)-5-methylisothiazol-3(2H)-one] | no inhibition

Same assay, conditions: HsPGM 5 nM, no preincubation; > values: highest concentration at which the compound can solubilize; read-out: IC50 HsPGM

Structure (SMILES) | IC50 [µM]
O=c1ccsn1-c1cc(Cl)cc(Cl)c1F [ISFP5, 2-(3,5-dichloro-2-fluorophenyl)isothiazol-3(2H)-one] | 10 ± 1
CC(C)(C)OC(=O)c1ccc(-n2sccc2=O)cc1 [ISFP8, tert-butyl 4-(3-oxoisothiazol-2(3H)-yl)benzoate] | > 100
O=C(OCc1ccccc1)c1ccc(-n2sccc2=O)cc1 [ISFP10, benzyl 4-(3-oxoisothiazol-2(3H)-yl)benzoate] | > 100
CC(C)OC(=O)c1ccc(-n2sccc2=O)cc1 [ISFP11, isopropyl 4-(3-oxoisothiazol-2(3H)-yl)benzoate] | > 100
O=c1ccsn1-c1cccc([N+](=O)[O-])c1 [ISFP12, 2-(3-nitrophenyl)isothiazol-3(2H)-one] | > 100
O=c1ccsn1-c1cccc(Cl)c1 [ISFP13, 2-(3-chlorophenyl)isothiazol-3(2H)-one] | 100
N#Cc1cccc(-n2sccc2=O)c1 [ISFP14, 3-(3-oxoisothiazol-2(3H)-yl)benzonitrile] | > 100
CCOC(=O)c1cc2cc(-n3sccc3=O)ccc2o1 [ISFP15, ethyl 5-(3-oxoisothiazol-2(3H)-yl)benzofuran-2-carboxylate] | > 100
O=c1ccsn1-c1ccccc1F [ISFP16, 2-(2-fluorophenyl)isothiazol-3(2H)-one] | > 400
O=c1ccsn1-c1cccc2ccccc12 [ISFP17, 2-(naphthalen-1-yl)isothiazol-3(2H)-one] | > 100
O=C(c1ccc(-n2sccc2=O)cc1)N1CCOCC1 [ISFP18, 2-(4-(morpholine-4-carbonyl)phenyl)isothiazol-3(2H)-one] | > 100
CC(=O)OCc1cccc(-n2sccc2=O)c1 [ISFP19, 3-(3-oxoisothiazol-2(3H)-yl)benzyl acetate] | > 400
O=c1ccsn1-c1c(F)cccc1F [ISFP20, 2-(2,6-difluorophenyl)isothiazol-3(2H)-one] | 86
O=c1ccsn1-c1cccc(CO)c1 [ISFP21, 2-(3-(hydroxymethyl)phenyl)isothiazol-3(2H)-one] | > 400

Same assay, conditions: enzyme preincubated with compound for 15 min (Fig. S11E, F); read-out: IC50 HsPGM after preincubation

Structure (SMILES) | IC50 [µM]
O=C(OCc1ccccc1)c1ccc(-n2sccc2=O)cc1 [ISFP10, benzyl 4-(3-oxoisothiazol-2(3H)-yl)benzoate] | 6
